Experiment [1] deals with DGKzeta (Homo sapiens, UniProt Q13574). Briefly: In vitro DGK inhibition assay (ADP-Glo, liposomes), DGKzeta. Format: biochemical. Also on record: hDGKzeta(1-928)-N-His; His (N); made in house; host or cells: Sf21 insect cells (baculovirus). The conditions noted are these: 2 nM DGK ζ, 50 μM ATP, 125 uM DLG in liposomes, 1 hour reaction. The protocol:
DGK α and ζ kinases use ATP to phosphorylate the substrate 1,2-dilauroyl-sn-glycerol (DLG, incorporated in the liposomes). ATP is converted to ADP as a result of this enzymatic reaction. After the kinase reaction, an ATP-depletion reagent is added to terminate the kinase reaction and deplete any remaining ATP, leaving only ADP. Second, a detection reagent is added to simultaneously convert ADP to ATP and allow the newly synthesized ATP to be converted to light using a coupled luciferase/luciferin reaction.
Purification of both enzymes was performed as previously described by Takahashi et al., PeerJ, 2018 (Takahashi, D.; Sakane, F. Expression and purification of human diacylglycerol kinase alpha from baculovirus-infected insect cells for structural studies. PeerJ 2018, 6, No. e5449).
A concentrated liposome solution was prepared in assay buffer without DTT and BSA: 2 mM of DLG in 21 mM of total liposome (2 mM DLG/8 mM PS/11 mM PC). The reaction mixtures contain the assay buffer with a final DLG concentration of 125 uM ATP concentrations of 25 μM (for DGKA assay) or 50 μM (for DGKZ assay). The reactions were started by addition of DGK a and (kinases at 4 nM and 2 nM final concentrations, respectively. After 1 hour reaction, the amount of ADP formed was detected with the ADP-Glo kinase assay (Promega) according to the manufacturer instructions. Compounds were added in 11-points dose response, starting at […], 1:3 dilutions, with a final DMSO concentration of 2%. The multidrop combi was used as a liquid handler and luminescence was read with 0.5 s by the envision reader (PE).
In general terms: ADP-Glo turns the ADP formed in a reaction into a luminescent signal.

Experiment [2] deals with primary human T-cells. Briefly: T-cell proliferation assay (CellTiter-Glo). Format: cell-based. The conditions noted are these: Homo sapiens, T-cell, 120 h, CD3 condition; for Emax: 5 days, 20 μM reference compound A1 = 100%, read-out: Emax proliferation (% activation); for EC50: proliferation after 5 days, CellTiter-Glo, read-out: Tcell Proliferation CD3 EC50. The protocol:
Expanded primary human T-cells are thawed and cultured in RPMI 1640 (Gibco, #61870-010)+5% human serum (HS, Sigma, #H3667)+1 mM Sodium Pyruvate (Gibco, #11360-039)+50 μM 2-mercaptoethanol (Gibco, #31350-010) and 1× Pen-Strep (Life Technologies, #15140122) medium at density of 2 Mio/ml for 3 hours in 5% CO2, 37° C. and 95% humidity. For coating of plates, PBS++ only or PBS++ with CD3 antibody (concentration depending on donor and determined by CD3 titrations) is added 100 μl/well to Poly-D Lysine coated 96-well plates. Plates are sealed and incubated at room temperature for 3 hours on a table-top rocking platform. After incubation, plates are washed once with PBS−− and filled with 40 μl/well culture medium only. Compounds are then added (see next section) to medium only plates. After 3 hours of culturing the T-cells, cells are filtered through a cell strainer (Miltenyi Biotech, #130-041-407), counted again and concentration is adjusted to 1.25 Mio/ml.
Cells are then seeded 80 μl/well to the 40 µl/well including dispensed compounds according to plate layout. By adding cells, compounds are further diluted 1:3, and resulting in 100k cells/120 µl/well. After 48 hours 40 μl of supernatant is collected carefully from the top while not disturbing the cells. Cells are assessed for proliferation 5 days later by measuring […] using CellTiterGlo (Promega).
Compounds were added in a 5 or 6 pt dose response with the Tecan D300e Digital Dispenser, all conditions 3 times more concentrated than the end-concentration, since cells are added afterwards (80p1 cells to 40p1 prepared medium with treatment). The DR was starting at 20 μM or 10 μM final top concentration and a dilution factor of 3.333. The positive control was the reference compound A1 that was added in a dose response as well, additionally to 3 wells of only 20 μM representing the positive stimulator control. All wells were normalized with DMSO to a final concentration of 0.6% (0.2% end-concentration).
After 5 days, for detection of ATP which is directly proportional to the number of cells present per well, the CellTiter-Glo® 2.0 Reagent is used. After visual control for toxicity or precipitations of the tested compounds, the plates are equilibrated to room temperature for 45 minutes. CellTiter-Glo® 2.0 Reagent is equilibrated to room temperature as well. After equilibration, an equal amount of CellTiter-Glo reagent is added to the cells (80 µl/well) with an electronic multichannel pipette. Plates are placed on a rocking platform for 15 minutes at room temperature. After incubation, the bottom of the plates is sealed with backing tape. Luminescence is measured with PHERAstar FSX (interval time 0.5 sec, gain 3000, focal height 15 mm) and exported as CSV file for analysis in Genedata screener.
Calculations and Data Reporting CD3 and PBS plates were analysed separately in Genedata Screener using Roche Normalization PCT_POS_CTRL with DMSO set as Neutral Control and 20 μM of the reference compound A1 set as Stimulator Control/100%.
For CD3 conditions EC50 and Emax of the fitted sigmoidal curve were reported. If no curve could be fitted, the EC50 was reported as blank field and the Emax was based on individual data points. […] Compounds which activate unstimulated cells (see IL2 measurements) or compounds which negatively affected viability were flagged.
In general terms: ATP-based viability assays read luminescence as a measure of living cells.

Structures are written as SMILES.

In general, IC50 refers to the point on the concentration scale where inhibition reaches its midpoint.

Chain of DGKzeta (Q13574 whole entry): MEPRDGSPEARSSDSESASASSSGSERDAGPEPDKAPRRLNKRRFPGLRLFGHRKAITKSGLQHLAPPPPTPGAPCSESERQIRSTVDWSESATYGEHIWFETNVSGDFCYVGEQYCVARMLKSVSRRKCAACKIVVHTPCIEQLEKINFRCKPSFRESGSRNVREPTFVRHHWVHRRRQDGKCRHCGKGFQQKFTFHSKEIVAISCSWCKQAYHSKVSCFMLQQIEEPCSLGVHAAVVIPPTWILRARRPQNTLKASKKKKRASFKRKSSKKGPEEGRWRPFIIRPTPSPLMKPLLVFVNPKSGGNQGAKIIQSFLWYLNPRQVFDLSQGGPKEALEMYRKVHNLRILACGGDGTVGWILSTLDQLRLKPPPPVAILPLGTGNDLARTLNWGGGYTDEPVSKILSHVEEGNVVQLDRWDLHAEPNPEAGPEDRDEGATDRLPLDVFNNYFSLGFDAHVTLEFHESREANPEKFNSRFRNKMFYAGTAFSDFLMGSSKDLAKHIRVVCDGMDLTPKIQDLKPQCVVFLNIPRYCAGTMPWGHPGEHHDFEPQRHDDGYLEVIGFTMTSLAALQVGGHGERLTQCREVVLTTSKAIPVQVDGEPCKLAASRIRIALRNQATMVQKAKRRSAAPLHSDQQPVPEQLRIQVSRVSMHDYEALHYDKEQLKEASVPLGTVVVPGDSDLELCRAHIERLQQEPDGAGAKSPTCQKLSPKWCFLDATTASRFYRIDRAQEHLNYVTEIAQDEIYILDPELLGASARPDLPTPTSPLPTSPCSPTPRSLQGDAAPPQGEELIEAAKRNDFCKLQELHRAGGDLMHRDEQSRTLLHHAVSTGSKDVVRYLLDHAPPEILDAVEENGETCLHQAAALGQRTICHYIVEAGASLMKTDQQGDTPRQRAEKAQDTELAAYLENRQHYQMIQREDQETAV

As to `COc1cccc(-c2ccc(CN3C(=O)[C@@H](N)CS(=O)(=O)c4ccc(-c5nnc(C(C)(C)S(C)(=O)=O)o5)cc43)cc2)c1` [Example 22, (3R)-3-amino-5-[[4-(3-methoxyphenyl)phenyl]methyl]-7-[5-(1-methyl-1-methylsulfonyl-ethyl)-1,3,4-oxadiazol-2-yl]-1,1-dioxo-2,3-dihydro-1λ6,5-benzothiazepin-4-one], the 50% inhibitory concentration (IC50) in experiment [1] amounted to 1640 nM. Moreover, in experiment [2], the Emax turned out to be 47% and the EC50 is > 10000 nM.

Consider `COc1ccc(-c2ccc(CN3C(=O)[C@@H](N)CS(=O)(=O)c4cc(F)c(-c5noc(C(C)(C)S(C)(=O)=O)n5)cc43)cc2)cc1` [Example 50, (3R)-3-amino-8-fluoro-5-[[4-(4-methoxyphenyl)phenyl]methyl]-7-[5-(1-methyl-1-methylsulfonyl-ethyl)-1,2,4-oxadiazol-3-yl]-1,1-dioxo-2,3-dihydro-1λ6,5-benzothiazepin-4-one], for which half-maximal inhibition in experiment [1] (IC50) was put at 377 nM. In experiment [2], the Emax came out at 293% and the EC50 was 757 nM.

In the case of `CC(C)(c1nnc(-c2ccc3c(c2)N(Cc2ccc(-c4ccc(C#N)cc4)cc2)C(=O)[C@@H](N)CS3(=O)=O)o1)S(C)(=O)=O` [Example 20, 4-[4-[[(3R)-3-amino-7-[5-(1-methyl-1-methylsulfonyl-ethyl)-1,3,4-oxadiazol-2-yl]-1,1,4-trioxo-2,3-dihydro-1λ6,5-benzothiazepin-5-yl]methyl]phenyl]benzonitrile], in experiment [1], 1450 nM corresponded to half-maximal inhibition (IC50). In experiment [2], the Emax was 85% and the EC50 is 4010 nM.

Take `CC(C)(c1nnc(-c2ccc3c(c2)N(Cc2ccc(Oc4ccccc4)cc2)C(=O)[C@@H](N)CS3(=O)=O)o1)S(=O)(=O)C1CC1` [Example 61, (3R)-3-amino-7-[5-(1-cyclopropylsulfonyl-1-methyl-ethyl)-1,3,4-oxadiazol-2-yl]-1,1-dioxo-5-[(4-phenoxyphenyl)methyl]-2,3-dihydro-1λ6,5-benzothiazepin-4-one]: in experiment [1], it took 768 nM to reach half-maximal inhibition (IC50). Further, in experiment [2], the Emax was found to be 58% and the EC50 is 4560 nM.

Turning to `CC(C)(c1nnc(-c2ccc3c(c2)N(Cc2ccc(OCc4ccccc4)cc2)C(=O)[C@@H](N)CS3(=O)=O)o1)S(C)(=O)=O` [Example 11, (3R)-3-amino-5-[(4-benzyloxyphenyl)methyl]-7-[5-(1-methyl-1-methylsulfonyl-ethyl)-1,3,4-oxadiazol-2-yl]-1,1-dioxo-2,3-dihydro-1λ6,5-benzothiazepin-4-one], it took 1060 nM to reach half-maximal inhibition in experiment [1] (IC50). In experiment [2], the Emax was determined as 145% and the EC50 was found to be 495 nM.

Turning to `Cc1cccc(Oc2ccc(CN3C(=O)[C@@H](N)CS(=O)(=O)c4ccc(-c5nnc(C(C)(C)S(C)(=O)=O)o5)cc43)cc2)c1` [Example 31], the IC50 in experiment [1] was determined as 455 nM. In addition, in experiment [2], the Emax stood at 106% and the EC50 is 599 nM.

The compound `CC(C)(c1nnc(-c2ccc3c(c2)N(Cc2ccc(Oc4ccc(F)c(Cl)c4)cc2)C(=O)[C@@H](N)CS3(=O)=O)o1)S(C)(=O)=O` [Example 37, (3R)-3-amino-5-[[4-(3-chloro-4-fluoro-phenoxy)phenyl]methyl]-7-[5-(1-methyl-1-methylsulfonyl-ethyl)-1,3,4-oxadiazol-2-yl]-1,1-dioxo-2,3-dihydro-1λ6,5-benzothiazepin-4-one] displayed a 50% inhibitory concentration (IC50) in experiment [1] of 414 nM. For the same compound, in experiment [2], the Emax was 115% and the EC50 was determined as 1290 nM.

`COCC(C)(C)Oc1ccc(CN2C(=O)[C@@H](N)CS(=O)(=O)c3cc(F)c(-c4noc(C(C)(C)S(C)(=O)=O)n4)cc32)cc1` [Example 62, (3R)-3-amino-8-fluoro-5-[[4-(2-methoxy-1,1-dimethyl-ethoxy)phenyl]methyl]-7-[5-(1-methyl-1-methylsulfonyl-ethyl)-1,2,4-oxadiazol-3-yl]-1,1-dioxo-2,3-dihydro-benzothiazepin-4-one] showed an IC50 in experiment [1] of 269 nM. Further, in experiment [2], the Emax was found to be 188% and the EC50 was 1390 nM.

In the case of `CC(C)(c1nnc(-c2ccc3c(c2)N(Cc2ccc(OCc4ccccc4F)cc2)C(=O)[C@@H](N)CS3(=O)=O)o1)S(C)(=O)=O` [Example 14, (3R)-3-amino-5-[[4-[(2-fluorophenyl)methoxy]phenyl]methyl]-7-[5-(1-methyl-1-methylsulfonyl-ethyl)-1,3,4-oxadiazol-2-yl]-1,1-dioxo-2,3-dihydro-1λ6,5-benzothiazepin-4-one], the IC50 in experiment [1] was 1110 nM. Besides, in experiment [2], the Emax was determined as 113% and the EC50 was determined as 1220 nM.

For `CC(C)(c1nnc(-c2ccc3c(c2)N(Cc2ccc(-c4ccc(OC(F)(F)F)cn4)cc2)C(=O)[C@@H](N)CS3(=O)=O)o1)S(C)(=O)=O` [Example 69, (3R)-3-amino-1,1-diketo-7-[5-(1-mesyl-1-methyl-ethyl)-1,3,4-oxadiazol-2-yl]-5-[4-[5-(trifluoromethoxy)-2-pyridyl]benzyl]-2,3-dihydro-1λ6,5-benzothiazepin-4-one], half-maximal inhibition in experiment [1] (IC50) was put at 826 nM. Also, in experiment [2], the Emax was found to be 91% and the EC50 was 31 nM.

`CC(C)(c1nnc(-c2ccc3c(c2)N(Cc2ccc(Oc4cccc(F)c4)cc2)C(=O)[C@@H](N)CS3(=O)=O)o1)S(C)(=O)=O` [Example 33, (3R)-3-amino-5-[[4-(3-fluorophenoxy)phenyl]methyl]-7-[5-(1-methyl-1-methylsulfonyl-ethyl)-1,3,4-oxadiazol-2-yl]-1,1-dioxo-2,3-dihydro-1λ6,5-benzothiazepin-4-one] gave a half-maximal inhibitory concentration (IC50) in experiment [1] of 539 nM. In experiment [2], the Emax is 82% and the EC50 is 645 nM.

As for `COc1ccc(-c2ccc(CN3C(=O)[C@@H](N)CS(=O)(=O)c4ccc(-c5nnc(C(C)(C)S(C)(=O)=O)o5)cc43)cc2)cc1` [Example 21, (3R)-3-amino-5-[[4-(4-methoxyphenyl)phenyl]methyl]-7-[5-(1-methyl-1-methylsulfonyl-ethyl)-1,3,4-oxadiazol-2-yl]-1,1-dioxo-2,3-dihydro-1λ6,5-benzothiazepin-4-one], the half-inhibitory concentration (IC50) in experiment [1] worked out at 1080 nM. Moreover, in experiment [2], the Emax was 115% and the EC50 stood at 1130 nM.

The compound `CC(C)(c1nnc(-c2cc3c(cc2F)S(=O)(=O)C[C@H](N)C(=O)N3Cc2ccc(-c3ccc(C(F)(F)F)cc3)cc2)o1)S(C)(=O)=O` [Example 35, (3R)-3-amino-8-fluoro-7-[5-(1-methyl-1-methylsulfonyl-ethyl)-1,3,4-oxadiazol-2-yl]-1,1-dioxo-5-[[4-[4-(trifluoromethyl)phenyl]phenyl]methyl]-2,3-dihydro-1λ6,5-benzothiazepin-4-one] gave an IC50 in experiment [1] of 649 nM. Besides, in experiment [2], the Emax worked out at 164% and the EC50 is < 15 nM.

Source of the values: patent publication US20260035364A1, “BICYCLIC TETRAHYDROTHIAZEPINE DERIVATIVES” (Hoffmann-La Roche Inc., priority 2022, published 2026).
